Measured values: US20040103452A1, “Inducible apomixis” (priority 2001, published 2004)

Test system: Arabidopsis thaliana Ler x transgenic WS (AtLTP1::AtSERK1) F1 plants
Assay: SSLP analysis of F2 progeny for apomictic plants after 2,4-D application to F1 flower buds
Format: in vivo
Conditions: flower buds dipped in 2 μM 2,4-D 1 to 2 days pre-anthesis, repeated twice
Description: Transgenic T3 Arabidopsis thaliana ecotype WS plants, i.e. transgenic plants in the third generation after transformation, that are homozygous for the AtLTP1::AtSERK1 construct are used as male donor to pollinate Arabidopsis thaliana ecotype Landsberg erecta (L r) plants. The flower buds of the F1 plants at stage 11 to 12 (Smyth et al., The Plant Cell 2: 755, 1990) approximately 1 to 2 days pre-anthesis are dipped in an aqueous solution containing 2 μM 2,4-D supplemented with 0.04% (v/v) Triton X-100 as a surfactant as described by Vivian-Smith et al., (Plant Physiol. 121: 437, 1999). The treatment is repeated twice in a two-day period and plants are left to set F2 seeds. In parallel a control cross between wild-type Ler female and wild-type WS male plant is made to obtain F1 plants. Those F1 plants are designated as wild-type F1 plants and they are analysed in the same way as the transgenic F1 plants except that they are not auxin treated.
The F2 seeds are grown into seedlings and a few rosette leaves from each plant are used for DNA extraction as described by Ponce et al., Mol. Gen. Genet. 261: 408, 1999. Simple Sequence Length Polymorphism (SSLP) analysis is carried out by simultaneous amplification of 11 SSLP markers (see Table 1) using multiplex PCR with fluorescently labeled primers as described by Ponce et al. supra. […]

## O=C(O)COc1ccc(Cl)cc1Cl [2, 4 D, 2,4-dichlorophenoxyacetic acid]
AtLTP::AtSERK1 cross No 14 (line with lower SERK1 level), 144 F2 plants analyzed
  Plants h t rozygous for 11 SSLP markers Observed: 0
AtLTP::AtSERK1 cross No 15, 175 F2 plants analyzed
  Plants h t rozygous for 11 SSLP markers Observed: 2
